{"source": "BindingDB's records for doi:10.7270/Q20R9MZM", "about": "(Merrell Dow Research Institute, 1990)"}
{"molecular_target": "T1, Prunasin hydrolase (Prunus dulcis, UniProt H9ZGD9)", "T1 sequence (H9ZGD9 whole entry)": "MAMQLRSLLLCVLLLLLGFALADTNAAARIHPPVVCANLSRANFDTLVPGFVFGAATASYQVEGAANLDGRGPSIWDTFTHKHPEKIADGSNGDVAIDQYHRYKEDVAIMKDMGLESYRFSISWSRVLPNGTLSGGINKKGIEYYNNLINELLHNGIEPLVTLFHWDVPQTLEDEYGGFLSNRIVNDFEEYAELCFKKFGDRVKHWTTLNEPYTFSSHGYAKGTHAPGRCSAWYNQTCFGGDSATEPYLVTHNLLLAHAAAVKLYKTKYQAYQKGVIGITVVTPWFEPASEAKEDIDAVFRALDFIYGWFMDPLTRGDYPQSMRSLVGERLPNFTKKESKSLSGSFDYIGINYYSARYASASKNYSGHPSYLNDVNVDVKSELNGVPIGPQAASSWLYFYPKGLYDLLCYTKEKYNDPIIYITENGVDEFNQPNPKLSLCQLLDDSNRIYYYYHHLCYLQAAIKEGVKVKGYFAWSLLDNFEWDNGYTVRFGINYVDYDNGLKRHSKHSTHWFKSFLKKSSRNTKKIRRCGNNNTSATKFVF", "assay": "Enzyme Assay", "settings": "pH 5.6; 37 °C", "method": "The enzyme activity was measured by monitoring the increase in absorbance at 400 nm due to hydrolysis of para-nitrophenyl-beta-glucopyranoside. All assays were carried out in the presence of 0.05M sodium acetate buffer (pH 5.6) and 0.1 mM EDTA at 37 C.", "units": {"Ki": "µM"}}
{"smiles": "OC[C@H]1O[C@@H](Oc2ccc(C(F)F)cc2)[C@H](O)[C@@H](O)[C@@H]1O", "note": "[Glucosidase inhibitor, 6a]", "Ki": 1700}
{"smiles": "COc1cc(C(F)F)ccc1O[C@@H]1O[C@H](CO)[C@@H](O)[C@H](O)[C@H]1O", "note": "[Glucosidase inhibitor, 6b]", "Ki": 60}
{"smiles": "CCOc1cc(C(F)F)ccc1O[C@@H]1O[C@H](CO)[C@@H](O)[C@H](O)[C@H]1O", "note": "[Glucosidase inhibitor, 6c]", "Ki": 100}
{"smiles": "COc1cc(C(F)F)cc(OC)c1O[C@@H]1O[C@H](CO)[C@@H](O)[C@H](O)[C@H]1O", "note": "[Glucosidase inhibitor, 6d]", "Ki": 1900}
{"smiles": "OC[C@H]1O[C@@H](Oc2ccccc2C(F)F)[C@H](O)[C@@H](O)[C@@H]1O", "note": "[Glucosidase inhibitor, 6e]", "Ki": 3700}
{"smiles": "COc1ccc(O[C@@H]2O[C@H](CO)[C@@H](O)[C@H](O)[C@H]2O)c(C(F)F)c1", "note": "[Glucosidase inhibitor, 6f]", "Ki": 900}
{"smiles": "COc1cc(CF)ccc1O[C@@H]1O[C@H](CO)[C@@H](O)[C@H](O)[C@H]1O", "note": "[Glucosidase inhibitor, 11]", "Ki": 800}
